# According to patent US7205411B2, “Aminopyridine derivatives as mGluR5 antagonists” (Addex Pharmaceuticals SA, priority 2003, dated 2007):
# Where a name gives a salt, the structure may show the parent alone.
row,SMILES,melting point
1,Cc1ccc(N)c(C#Cc2cccc(Cl)c2)n1.Cl,195 °C (dec.)
2,Cc1ccc(N)c(C#Cc2ccc(F)cc2)n1.Cl,122 °C (dec.)
3,Cc1ccc(N)c(C#Cc2cccc(C#N)c2)n1.Cl,132.4 to 134 °C
4,"Cc1cc(C)c(N)c(C#Cc2cccc(Cl)c2)n1 (as salt: hydrochloride) [Example 13, (2-(3-Chloro-phenylethynyl)-4.6-dimethyl-pyridin-3-yl)amine hydrochloride]",204 °C
5,"Cc1ccc(N)c(C#Cc2cccc(F)c2)n1.Cl [Example 3, (2-(3-Fluoro-phenylethynyl)-6-methyl-pyridin-3-yl)amine hydrochloride]",199 to 200 °C (dec.)
6,"COc1cccc(C#Cc2nc(C)ccc2N)c1 [Example 4, (2-(3-Methoxy-phenylethynyl)-6-methyl-pyridin-3-yl)amine]",165 to 166 °C
7,"Cc1ccc(N)c(C#Cc2cc(F)cc(F)c2)n1.Cl [Example 7, (2-(3,5-Difluoro-phenylethynyl)-6-methyl-pyridin-3-yl)amine hydrochloride]",212 °C (dec.)
8,"Cc1ccc(N)c(C#Cc2cncc(Cl)c2)n1.Cl [Example 10, (2-(5-Chloro-pyridin-3-ylethynyl)-6-methyl-pyridin-3-yl)amine hydrochloride]",193 °C (dec.)
